Data on 5 compounds can be found in patent US20260276636A1, “METHOD FOR SPECIFIC AND RAPID QUANTIFICATION OF THE TOTAL VIABLE BACTERIAL COUNT IN RAW MILK” (National Institute of Metrology, priority 2023, published 2026).

Data set [1] relates to L. lactis. The data set can be described thus: Minimum inhibitory concentration (MIC) assay. The class given is cell-based, Lactococcus lactis. The conditions noted are these: 96-well plate, 37° C., 48 h; ATCC 19257. The method, then: (§1) • 1. Culture of bacterial strains. After the four bacterial strains were activated on a nutrient agar plate, a single colony was picked, inoculated to TSB medium (10 g/L peptone, 3 g/L beef extract powder, and 5 g/L sodium chloride), incubated at 37° C. for 6 h to the mid-logarithmic stage, and then centrifuged at 8000 rpm for 5 min to collect the bacterial cells. The collected bacterial cells were suspended in fresh TSB medium at a bacterial suspension concentration of approximately 10^7 cells/mL. • 2. Antibiotics. […] Antibiotics were purchased from Shanghai Yuanye Biotechnology Co., Ltd. An appropriate amount of antibiotics was weighed and dissolved in DSMO to prepare a stock solution of a cell division inhibitor, which was stored in the dark at −20° C. • 3. Minimum inhibitory concentration (MIC) assay. The above four bacterial suspensions were plated in a 96-well plate, to which antibiotics were added at final concentrations of […], and then incubated at 37° C. for 48 h. Bacterial growth was analyzed using a microplate reader, and the smallest concentration of antibiotics that could inhibit the growth of bacteria was defined as the minimum inhibitory concentration. • 4. Evaluation of inhibitory effect on bacterial division. […] After centrifugation at 8000 rpm, the bacterial cells were collected and resuspended in the PBS buffer, and the changes in the number of bacteria in the sample were analyzed using the forward scatter signals on the flow cytometer. • 5. Detection of bacterial viability. […] SYTO9 labeled all bacteria in green and PI labeled dead bacteria in red. The above labeling system was left at room temperature for 30 min in the dark, washed and centrifuged with PBS twice, and the percentages of viable and dead bacteria were analyzed using a flow cytometer. Measurement and analysis were performed using an Apogee A50 flow cytometer. At an excitation wavelength of 488 nm, a flow rate of 3-25 μL/min and a detection time of 10-100 s, the total number of bacteria was analyzed in the green fluorescence channel, and the number of dead bacteria was analyzed in the red fluorescence channel.

The subject of a further data set is S. aureus. The data set can be described thus: Minimum inhibitory concentration (MIC) assay. The conditions noted are these: 96-well plate, 37° C., 48 h; ATCC 29213. Type of data set: cell-based, Staphylococcus aureus. The procedure: as §1
For the next data set, the system named is B. subtilis. The data set can be described thus: Minimum inhibitory concentration (MIC) assay. The class given is cell-based, Bacillus subtilis. The conditions noted are these: 96-well plate, 37° C., 48 h; ATCC 6633. The procedure:
as §1

Data set [2] concerns E. coli. Put plainly: Minimum inhibitory concentration (MIC) assay. The class given is cell-based, Escherichia coli. The conditions noted are these: 96-well plate, 37° C., 48 h; ATCC 10798. The procedure: as §1
The subject of data set [3] is four species of bacteria (B. subtilis, E. coli, S. aureus, L. lactis). Put plainly: Evaluation of inhibitory effect on bacterial division (flow cytometry). The class given is cell-based. The conditions noted are these: 1 μg/mL, 2 h of treatment, compared to blank control; FIG. 7. The procedure:
(§2) • 1. Culture of bacterial strains. After the four bacterial strains were activated on a nutrient agar plate, a single colony was picked, inoculated to TSB medium (10 g/L peptone, 3 g/L beef extract powder, and 5 g/L sodium chloride), incubated at 37° C. for 6 h to the mid-logarithmic stage, and then centrifuged at 8000 rpm for 5 min to collect the bacterial cells. The collected bacterial cells were suspended in fresh TSB medium at a bacterial suspension concentration of approximately 10^7 cells/mL. • 2. Antibiotics. […] Bacterial growth was analyzed using a microplate reader, and the smallest concentration of antibiotics that could inhibit the growth of bacteria was defined as the minimum inhibitory concentration. • 4. […] After centrifugation at 8000 rpm, the bacterial cells were collected and resuspended in the PBS buffer, and the changes in the number of bacteria in the sample were analyzed using the forward scatter signals on the flow cytometer. • 5. […] The above labeling system was left at room temperature for 30 min in the dark, washed and centrifuged with PBS twice, and the percentages of viable and dead bacteria were analyzed using a flow cytometer. […]
(In general: In flow cytometry, cells or beads pass a laser one at a time.)

The subject of data set [4] is E. coli. Put plainly: Fluorescent labeling in presence of bacterial cell division inhibitor (flow cytometry). Type of data set: cell-based, Escherichia coli. The conditions noted are these: 500 μM, 2 h, with bacterial cell division inhibitor, FIG. 8. The text has this: (§3) • 1. Culture of bacterial strains. […] Fluorescent labeling with FADA. […] Fluorescent labeling with FADAA (Amino FADA).

In data set [5] the test system is four species of bacteria (B. subtilis, E. coli, S. aureus, L. lactis). Put plainly: Labeling efficiency by flow cytometry. The class given is cell-based. The procedure: (§4) • 1. Staphylococcus aureus (Deposit number: ATCC 29213), Escherichia coli (Deposit number: ATCC 10798), Lactococcus lactis (Deposit number: ATCC 19257), and Bacillus subtilis (Deposit number: ATCC 6633). The four bacterial strains are the dominant bacteria or the important indicator and pathogenic bacteria in raw milk. • 2. […] Labeling method. […] Fluorescence microscopy observation method. […] 10 μL of bacterial suspension was added onto a slide to prepare an observation sample, which was observed using a 100× oil lens and FITC fluorescence channel. Brightfield images and fluorescence field images were recorded separately. • 5. Flow cytometry. […] Optimization of labeling conditions.

For data set [6], the system named is L. lactis. The data set can be described thus: Fluorescent labeling in presence of bacterial cell division inhibitor (flow cytometry). The class given is cell-based, Lactococcus lactis. The conditions noted are these: 500 μM, 2 h, with bacterial cell division inhibitor, FIG. 8.
Text: as §3

In data set [7] the test system is B. subtilis, E. coli, S. aureus, and L. lactis. The data set can be described thus: Fluorescence microscopy observation of FADA-labeled bacteria. The class given is cell-based. The conditions noted are these: 300 μM, 37° C., 6 h; FIG. 1. The procedure:
as §4, with “The sample not incubated with FADA was used as the negative control.” for “Optimization of labeling conditions.”

Data set [8] relates to Staphylococcus aureus. The data set can be described thus: Specific labeling in mixed samples, fluorescence microscopy. The conditions noted are these: 500 μM, 37° C., 6 h, mixed with yeast or cow leukocytes; FIG. 6. Type of data set: cell-based. The procedure: (§5) • 1. Activation of bacterial strain. After Staphylococcus aureus was activated on a nutrient agar plate, a single colony was picked, inoculated to TSB medium (10 g/L peptone, 3 g/L beef extract powder, and 5 g/L sodium chloride), incubated at 37° C. for 6 h to the mid-logarithmic stage, and then centrifuged at 8000 rpm for 5 min to collect the bacterial cells. The collected bacterial cells were suspended in fresh TSB medium at a bacterial suspension concentration of approximately 10^7 cells/mL. • 2.

The next data set deals with Saccharomyces cerevisiae. The description is as above. The class given is cell-based. The conditions noted are these: 500 μM, 37° C., 6 h, mixed with S. aureus; FIG. 6. The procedure:
as §5

Data set [9] deals with Cow-derived fresh Leukocytes. Described as above. The class given is cell-based. The conditions noted are these: 500 μM, 37° C., 6 h, mixed with S. aureus; FIG. 6. The method, then: as §5
Data set [10] relates to Staphylococcus aureus. The conditions noted are these: 2 h. The method, then:
as §2

On to `C[C@H]1COc2c(N3CCN(C)CC3)c(F)cc3c(=O)c(C(=O)O)cn1c23` [Levofloxacin, levofloxacin], for which, in the data set with L. lactis [1], the “Resistance to quinolone antibiotics (MIC), L. lactis” value (“Resistance … L. lactis” below) was determined as 0.5 µg/mL. The “Resistance to quinolone antibiotics (MIC), S. aureus” value (shortened to “Resistance … S. aureus”) with S. aureus is less than 0.25 µg/mL. Further, the “Resistance to quinolone antibiotics (MIC), B. subtilis” value (“Resistance … B. subtilis” for short) in the data set with B. subtilis was 2 µg/mL. Besides, the “Resistance to quinolone antibiotics (MIC), E. coli” value (from here on “Resistance … E. coli”) with E. coli [2] was less than 0.25 µg/mL.
For `CCn1cc(C(=O)O)c(=O)c2ccc(C)nc21` [Nalidixic acid, nalidixic acid], the “Resistance … L. lactis” value in the data set with L. lactis [1] was more than 256 µg/mL. Further, the “Resistance … S. aureus” value in the data set on S. aureus amounted to 64 µg/mL. Further, the “Resistance … B. subtilis” value in the data set on B. subtilis came out at 128 µg/mL. For the same compound, the “Resistance … E. coli” value in the data set with E. coli [2] turned out to be 4 µg/mL.
For the compound `O=C(O)c1cn(C2CC2)c2cc(N3CCNCC3)c(F)cc2c1=O` [Ciprofloxacin, ciprofloxacin], the “Resistance … L. lactis” value with L. lactis [1] is 1 µg/mL. Moreover, the “Inhibition of cell division of the four species of bacteria” value in data set [3] is recorded as “efficient inhibition of cell division”. Moreover, the “Resistance … S. aureus” value with S. aureus worked out at 1 µg/mL. The “Resistance … B. subtilis” value with B. subtilis was 1 µg/mL. The “Resistance … E. coli” value in the data set with E. coli [2] amounted to 0.5 µg/mL.
Consider “Carboxyfluorescein-labeled amino-D-alanine [FADA]”, for which the “labeling effect (labeling efficiency)” value with E. coli [4] is 81.6%; in the data set with L. lactis [6], 57.1%. The labeling efficiency in data set [5] (300 μM, 37° C., 6 h, FIG. 2) was more than 98.5%; in data set [5] (500 μM, 4 h, FIG. 3), “more than 98.5%”. Also, the “Fluorescent labeling of bacterial cells under fluorescence microscope” value in data set [7] is reported as “all cells in the field of view were found fluorescently labeled”. In addition, in the data set on Staphylococcus aureus [8], the “Fluorescent labeling of S. aureus in mixed samples” value was “fluorescently labeled”. For the same compound, the “Fluorescent labeling of yeast in mixed sample” value in the data set on Saccharomyces cerevisiae is reported as “not labeled”. Moreover, in [9], the “Fluorescent labeling of somatic cells (cow leukocytes) in mixed sample” value is recorded as “not labeled”.
Consider `COc1c(N2C[C@@H]3CCCN[C@@H]3C2)c(F)cc2c(=O)c(C(=O)O)cn(C3CC3)c12` [Moxifloxacin, moxifloxacin], for which the “Resistance … L. lactis” value in the data set on L. lactis [1] worked out at 2 µg/mL. Further, the “Resistance … S. aureus” value in the data set on S. aureus came to 4 µg/mL. Besides, the “bacterial viability after antibiotic treatment” value in the data set on Staphylococcus aureus [10] was 88.1%. Moreover, in the data set on B. subtilis, the “Resistance … B. subtilis” value was found to be 8 µg/mL. The “Resistance … E. coli” value in the data set on E. coli [2] is 1 µg/mL.
